Legend:
[1] = target: GDP-bound NRAS wild-type protein (Homo sapiens, UniProt P01111); test: Binding to NRAS by surface plasmon resonance (SPR), Single Cycle Kinetics; settings: KD ratio, GDP-bound NRAS wild-type vs GDP-bound KRAS wild-type, SPR
[2] = target: GDP-bound HRAS wild-type protein (Homo sapiens, UniProt P01112); test: Binding to HRAS by surface plasmon resonance (SPR), Single Cycle Kinetics; settings: KD ratio, GDP-bound HRAS wild-type vs GDP-bound KRAS wild-type, SPR
Sequence of GDP-bound HRAS wild-type protein (P01112 whole entry): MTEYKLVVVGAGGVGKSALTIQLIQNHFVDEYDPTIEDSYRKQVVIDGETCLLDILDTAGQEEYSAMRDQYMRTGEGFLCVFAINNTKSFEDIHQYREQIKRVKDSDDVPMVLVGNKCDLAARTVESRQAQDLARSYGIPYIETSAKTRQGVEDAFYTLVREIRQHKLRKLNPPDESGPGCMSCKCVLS

Sequence of GDP-bound NRAS wild-type protein (P01111 whole entry): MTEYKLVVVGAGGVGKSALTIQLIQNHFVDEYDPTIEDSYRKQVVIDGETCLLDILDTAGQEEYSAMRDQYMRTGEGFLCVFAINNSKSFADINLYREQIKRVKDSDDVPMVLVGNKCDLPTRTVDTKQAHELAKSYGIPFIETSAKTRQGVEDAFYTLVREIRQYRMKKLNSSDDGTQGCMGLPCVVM

SMILES	NRAS/KRAS (ratio of KD value with respect to NRAS to KD value with respect to KRAS) [1]	HRAS/KRAS (ratio of KD value with respect to HRAS to KD value with respect to KRAS) [2]
CCO[C@@H]1C[C@H]2C(=O)NC3(CC=CC3)C(=O)N(C)[C@@H](C3CCCC3)C(=O)N(C)[C@H](C(=O)N3CCOCC3)CC(=O)N(C)[C@@H](COC)C(=O)N[C@@H]([C@@H](C)CC)C(=O)N(C)CC(=O)N(C)[C@H]3CCCCCN(C3=O)[C@@H](Cc3ccc(C(F)(F)F)cc3)C(=O)N(C)CC(=O)N[C@@H](CCc3cc(F)c(C(F)(F)F)c(F)c3)C(=O)N2C1 [PP0842]	B (a compound having 3 or more and less than 10 is denoted as B)	B (a compound having 3 or more and less than 10 is denoted as B)
CCO[C@@H]1C[C@H]2C(=O)NC3(CC(F)(F)C3)C(=O)N(C)[C@@H](C3CCCC3)C(=O)N(C)[C@H](C(=O)N3CCOCC3)CC(=O)N(C)[C@@H](COC)C(=O)N[C@@H]([C@@H](C)CC)C(=O)N(C)CC(=O)N(C)[C@H]3CCCCCN(C3=O)[C@@H](Cc3ccc(C(F)(F)F)cc3)C(=O)N(C)CC(=O)N[C@@H](CCc3cc(F)c(C(F)(F)F)c(F)c3)C(=O)N2C1 [PP0843]	B (a compound having 3 or more and less than 10 is denoted as B)	B (a compound having 3 or more and less than 10 is denoted as B)
CCO[C@@H]1C[C@H]2C(=O)NC3(CC(C)(C)C3)C(=O)N(C)[C@@H](C3CCCC3)C(=O)N(C)[C@H](C(=O)N3CCOCC3)CC(=O)N(C)[C@@H](COC)C(=O)N[C@@H]([C@@H](C)CC)C(=O)N(C)CC(=O)N(C)[C@H]3CCCCCN(C3=O)[C@@H](Cc3ccc(C(F)(F)F)cc3)C(=O)N(C)CC(=O)N[C@@H](CCc3cc(F)c(C(F)(F)F)c(F)c3)C(=O)N2C1 [PP0844]	B (a compound having 3 or more and less than 10 is denoted as B)	B (a compound having 3 or more and less than 10 is denoted as B)
CC[C@H](C)[C@@H]1NC(=O)[C@H](COC)N(C)C(=O)C[C@@H](C(=O)N2CCOCC2)N(C)C(=O)[C@H](C2CCCC2)N(C)C(=O)C2(CCCC2)NC(=O)[C@@H]2CCCN2C(=O)[C@H](CCc2cc(F)c(C(F)(F)F)c(F)c2)NC(=O)CN(C)C(=O)[C@H](Cc2ccc(C(F)(F)F)cc2)N2CCCCC[C@@H](C2=O)N(C)C(=O)CN(C)C1=O [PP0845]	B (a compound having 3 or more and less than 10 is denoted as B)	B (a compound having 3 or more and less than 10 is denoted as B)
CC[C@H](C)[C@@H]1NC(=O)[C@H](COC)N(C)C(=O)C[C@@H](C(=O)N2CCOCC2)N(C)C(=O)[C@H](C2CCCC2)N(C)C(=O)C2(CCCC2)NC(=O)[C@@H]2CC(F)(F)CN2C(=O)[C@H](CCc2cc(F)c(C(F)(F)F)c(F)c2)NC(=O)CN(C)C(=O)[C@H](Cc2ccc(C(F)(F)F)cc2)N2CCCCC[C@@H](C2=O)N(C)C(=O)CN(C)C1=O [PP0846]	B (a compound having 3 or more and less than 10 is denoted as B)	B (a compound having 3 or more and less than 10 is denoted as B)
CC[C@H](C)[C@@H]1NC(=O)[C@H](COC)N(C)C(=O)C[C@@H](C(=O)N2CCOCC2)N(C)C(=O)[C@H](C2CCCC2)N(C)C(=O)C2(CCCC2)NC(=O)[C@@H]2C[C@H](O)CN2C(=O)[C@H](CCc2cc(F)c(C(F)(F)F)c(F)c2)NC(=O)CN(C)C(=O)[C@H](Cc2ccc(C(F)(F)F)cc2)N2CCCCC[C@@H](C2=O)N(C)C(=O)CN(C)C1=O [PP0847]	B (a compound having 3 or more and less than 10 is denoted as B)	B (a compound having 3 or more and less than 10 is denoted as B)
CCO[C@@H]1C[C@H]2C(=O)NC3(CCC3)C(=O)N(C)[C@@H](C3CCCC3)C(=O)N(C)[C@H](C(=O)N3CCOCC3)CC(=O)N(C)[C@@H](COC)C(=O)N[C@@H]([C@@H](C)CC)C(=O)N(C)CC(=O)N(C)[C@H]3CCCCCN(C3=O)[C@@H](Cc3ccc(C(F)(F)F)cc3)C(=O)N(C)CC(=O)N[C@@H](CCc3ccc(C(F)(F)F)c(F)c3)C(=O)N2C1 [PP0848]	B (a compound having 3 or more and less than 10 is denoted as B)	B (a compound having 3 or more and less than 10 is denoted as B)
CCO[C@@H]1C[C@H]2C(=O)NC3(CCC3)C(=O)N(C)[C@@H](C3CCCC3)C(=O)N(C)[C@H](C(=O)N3CCOCC3)CC(=O)N(C)[C@@H](COC)C(=O)N[C@@H]([C@@H](C)CC)C(=O)N(C)CC(=O)N(C)[C@H]3CCCCCN(C3=O)[C@@H](Cc3ccc(C(F)(F)F)cc3)C(=O)N(C)CC(=O)N[C@@H](CCc3ccc(C(F)(F)F)c(Cl)c3)C(=O)N2C1 [PP0849]	B (a compound having 3 or more and less than 10 is denoted as B)	B (a compound having 3 or more and less than 10 is denoted as B)
CCO[C@@H]1C[C@H]2C(=O)NC3(CCC3)C(=O)N(C)[C@@H](C3CCCC3)C(=O)N(C)[C@H](C(=O)N3CCOCC3)CC(=O)N(C)[C@@H](COC)C(=O)N[C@@H]([C@@H](C)CC)C(=O)N(C)CC(=O)N(C)[C@H]3CCCCCN(C3=O)[C@@H](Cc3ccc(C(F)(F)F)cc3)C(=O)N(C)CC(=O)N[C@@H](CCc3ccc(C)cc3)C(=O)N2C1 [PP0850]	B (a compound having 3 or more and less than 10 is denoted as B)	B (a compound having 3 or more and less than 10 is denoted as B)
CCOC[C@H]1C(=O)N[C@@H]([C@@H](C)CC)C(=O)N(C)CC(=O)N(C)[C@H]2CCCCCN(C2=O)[C@@H](Cc2ccc(C(F)(F)F)cc2)C(=O)N(C)CC(=O)N[C@@H](CCc2cc(F)c(C(F)(F)F)c(F)c2)C(=O)N2C[C@H](OCC)C[C@H]2C(=O)NC2(CCC2)C(=O)N(C)[C@@H](C2CCCC2)C(=O)N(C)[C@H](C(=O)N2CCOCC2)CC(=O)N1C [PP0851]	B (a compound having 3 or more and less than 10 is denoted as B)	B (a compound having 3 or more and less than 10 is denoted as B)
CCO[C@@H]1C[C@H]2C(=O)NC3(CCC3)C(=O)N(C)[C@@H](C3CCCC3)C(=O)N(C)[C@H](C(=O)N3CCOCC3)CC(=O)N(C)[C@@H](COC3CC3)C(=O)N[C@@H]([C@@H](C)CC)C(=O)N(C)CC(=O)N(C)[C@H]3CCCCCN(C3=O)[C@@H](Cc3ccc(C(F)(F)F)cc3)C(=O)N(C)CC(=O)N[C@@H](CCc3cc(F)c(C(F)(F)F)c(F)c3)C(=O)N2C1 [PP0852]	B (a compound having 3 or more and less than 10 is denoted as B)	B (a compound having 3 or more and less than 10 is denoted as B)
